Experimental findings from EP4177246A1, “FUSED OXAZEPINES AS INHIBITORS OF PEROXIREDOXINS” (Centro Atlántico del Medicamento, SA, priority 2021, dated 2023) are described below.

The test system of the first test is K562. Briefly: MTT cell viability assay, K562 cells. It is filed as cell-based. The settings on record: Homo sapiens, 48 h drug exposure. As to the method: K562 [American Type Culture Collection (ATCC) reference number CCL-243]. This a human cancer cell line derived from the bone marrow of a person with CML.
(§1) Cell viability was assayed by measuring the mitochondrial reduction of the tetrazolium salt 3-(4,5-methyltiazol-2yl)-2,5diphenyl-tetrazolium bromide] (MTT) (Applichen; A2231,0010) [Mosmann T. J Immunol Methods. 1983 16;65(1-2):55-63 (ref. 36); Chuan Y-C et al 2010. Oncogene. 29 (10), 1531-1542 (ref. 37)]. Cells were seeded in 96-well plates in medium (either RPMI, DMEM or McCoys depending on the recommendations from the ATCC) supplemented with 10% FBS (Lonza Cat. N°: 14-502F), 2mM L-Glut (Lonza Cat. N°: BE17-605E) and 100U/ml PEST (Lonza Cat. N°: DE17-605E) at a cell density of 1000-5000 cells/well (96 well plate). Cells were seeded at a density according to their exponential growth phase (normally 1000 to 5000/well). The cells were cultured at 37 °C in the dark in air containing 5% CO2. After 24h either vehicle (0.05% DMSO) or drug were added to culture medium at the indicated concentrations (10 to 0,01microM). After another 48 h, MTT (0.3 mg/ml) was added to cells, followed by incubation for 2-4h at 37 °C in the dark. The medium was then removed and the precipitated formazan was solubilized by the addition of DMSO (200 µL).
(§2) The optical density was measured at 595 nm with the iMark Microplate Reader (BioRad, USA). Data was expressed as percent growth above the level in controls and the results in figures were plotted as means ± SEM of each test point from 3 replicates.
(§3) Statistical analysis. The concentration of drug that provokes 50% reduction of cell viability (IC50) was determined by using non-linear regression analysis and data were fitted to a log concentration vs normalized response curve in GraphPad software v5 (San Diego, CA).
(Tetrazolium assays rely on reduction of a dye to a coloured formazan, in cell work by metabolically active cells.)
`O=C1C2=C(C(=O)c3ccccc31)N(c1ccc(Cl)cc1)Cc1ccccc1O2` [Compound 3]: the IC50 was 0.9 µM.

`O=C1C2=C(C(=O)c3ccccc31)N(c1ccccn1)Cc1ccccc1O2` [Compound 5, 12-(pyridin-2-yl)-12,13-dihydrobenzo[f]naphtho[2,3-b][1,4]oxazepine-6,11-dione] had a concentration for half-maximal inhibition (IC50) of 0.43 µM.

As to `COc1cccc2c1OC1=C(C(=O)c3ccccc3C1=O)N(c1ccc(C(N)=O)cc1)C2` [Compound 7], the IC50 is 0.89 µM.

Regarding `COc1ccc2c(c1)OC1=C(C(=O)c3ccccc3C1=O)N(c1ccc(C#N)cc1)C2` [Compound 14], it took 0.97 µM to reach half-maximal inhibition (IC50).

Regarding `O=C(O)c1ccc(N2Cc3ccccc3OC3=C2C(=O)c2ccccc2C3=O)cc1` [Compound 18], the half-inhibitory concentration (IC50) is > 10 µM.

As for `NS(=O)(=O)c1ccc(N2Cc3cc(Cl)ccc3OC3=C2C(=O)c2ccccc2C3=O)cc1` [Compound 20], the concentration for half-maximal inhibition (IC50) was determined as 1.42 µM.

Take `NC(=O)c1ccc(N2Cc3cc(Cl)ccc3OC3=C2C(=O)c2ccccc2C3=O)cc1` [Compound 21]: half-maximal inhibition (IC50) required 1.12 µM.

The test system of another test is HEL 92.1.7. Kind of test: MTT cell viability assay, HEL cells. Format: cell-based. Conditions: Homo sapiens, 48 h drug exposure. The protocol:
HEL 92.1.7 [American Type Culture Collection (ATCC) reference number TIB-180]. This a human cancer cell line derived from the bone marrow of a person with erythroleukemia, which is a form of AML.
as §1, §2, §3
`COc1ccc(N2Cc3ccccc3OC3=C2C(=O)c2c(O)ccc(O)c2C3=O)cc1` [Compound 46] returned an IC50 of 0.11 µM.

As to `COC(=O)c1ccc(N2Cc3ccccc3OC3=C2C(=O)c2c(O)ccc(O)c2C3=O)cc1` [Compound 48], it took 0.1 µM to reach half-maximal inhibition (IC50).

Consider `O=C(O)c1ccc2c(c1)CN(c1ccccc1)C1=C(O2)C(=O)c2c(O)ccc(O)c2C1=O` [Compound 50], for which the IC50 was 2.42 µM. This IC50 lies about 24-fold higher than the previous one.

Consider `CCOC(=O)c1ccc2c(c1)CN(c1cccnc1)C1=C(O2)C(=O)c2c(O)ccc(O)c2C1=O` [Compound 51], for which the IC50 was 3.31 µM. This IC50 and that of the molecule before are within 1.5-fold of each other.

With `O=C(O)c1ccc2c(c1)CN(c1cccnc1)C1=C(O2)C(=O)c2c(O)ccc(O)c2C1=O` [Compound 52], the IC50 is > 10 µM.

For `CC(=O)Oc1ccc(OC(C)=O)c2c1C(=O)C1=C(C2=O)N(c2ccc(C(=O)O)cc2)Cc2ccccc2O1` [Compound 53], the IC50 was 0.12 µM.

With `O=C(O)c1ccc(N2Cc3ccccc3OC3=C2C(=O)c2c(O)ccc(O)c2C3=O)cc1` [Compound 57], the IC50 is 0.13 µM.

`CC(=O)Oc1ccc(O)c2c1C(=O)C1=C(C2=O)N(c2ccccc2)Cc2ccccc2O1` [Compound 88] returned an IC50 of 0.08 µM.

`CC(=O)Oc1ccc(O)c2c1C(=O)C1=C(Oc3ccccc3CN1c1cccnc1)C2=O` [Compound 90] gave an IC50 of 0.09 µM.

A further test has as its system MDA-MB-231. Briefly: MTT cell viability assay, MDA-MB-231 cells. Format: cell-based, human. The settings on record: 48 h drug exposure. As to the method:
MDA-MB-231 [American Type Culture Collection (ATCC) reference number HTB-26]. This a human breast cancer cell line derived from a metastatic site from a person.
as §1, §2, §3
On to `CC(=O)Oc1ccc(OC(C)=O)c2c1C(=O)C1=C(Oc3ccccc3C(c3ccc(N(C)C)nc3)N1)C2=O` (stereo not drawn) [Compound 95, 12-(6-(dimethylamino)pyridin-3-yl)-6,11-dioxo-6,11,12,13-tetrahydrobenzo[f]naphtha [2,3-b][1,4]oxazepine-7,10-diyl diacetate], for which the half-inhibitory concentration (IC50) was determined as 0.15 µM.

`CC(=O)Oc1ccc(OC(C)=O)c2c1C(=O)C1=C(Oc3ccccc3C(c3ccc(N4CCOCC4)nc3)N1)C2=O` (stereo not drawn) [Compound 96, 12-(6-morpholinopyridin-3-yl)-6,11-dioxo-6,11,12,13-tetrahydrobenzo[f]naphtha [2,3-b][1,4] oxazepine-7,10-diyl diacetate] gave a half-inhibitory concentration (IC50) of 0.13 µM.

The test is the same for the next values; noted with them: Homo sapiens, 48 h drug exposure.
`O=C1C2=C(Oc3ccccc3CN2c2cccnc2)C(=O)c2c1cccc2[N+](=O)[O-]` [Compound 27]: the concentration for half-maximal inhibition (IC50) amounted to 1.73 µM.

`O=C1C2=C(C(=O)c3c1cccc3[N+](=O)[O-])N(c1cccnc1)Cc1ccccc1O2` [Compound 28] yielded an IC50 of 2 µM. The IC50 values of the last two molecules are within 1.5-fold of each other.

Take `NS(=O)(=O)c1ccc(N2Cc3ccccc3OC3=C2C(=O)c2ccc(S(=O)(=O)N4CCOCC4)cc2C3=O)cc1` [Compound 29]: the half-maximal inhibitory concentration (IC50) is > 10 µM.

With `COc1ccc(OC)c2c1C(=O)C1=C(C2=O)N(c2ccc(C#N)cc2)Cc2ccccc2O1` [Compound 30], half-maximal inhibition (IC50) was put at 0.89 µM.

On to `COc1cc(F)c(OC)c2c1C(=O)C1=C(Oc3ccccc3CN1c1ccc(C#N)cc1)C2=O` [Compound 31], for which 1.51 µM corresponded to half-maximal inhibition (IC50).

For `CN1CCN(c2cc(O)c3c(c2O)C(=O)C2=C(C3=O)N(c3ccc(C#N)cc3)Cc3ccccc3O2)CC1` [Compound 32], inhibition was half-maximal at 0.79 µM (IC50).

On to `CN1CCN(c2cc(O)c3c(c2O)C(=O)C2=C(C3=O)N(c3cccnc3)Cc3ccccc3O2)CC1` [Compound 33], for which half-maximal inhibition (IC50) was put at 0.72 µM.

In the case of `N#Cc1ccc(N2Cc3ccccc3OC3=C2C(=O)c2c(O)cc(F)c(O)c2C3=O)cc1` [Compound 34], the IC50 came to 0.74 µM. This IC50 and that of the molecule before are within 1.5-fold of each other.

`COc1cc(F)c(OC)c2c1C(=O)C1=C(Oc3ccccc3CN1c1cccnc1)C2=O` [Compound 35] registered a half-inhibitory concentration (IC50) of 0.8 µM.

On to `COc1ccc(N2Cc3ccccc3OC3=C2C(=O)c2c(O)ccc(O)c2C3=O)cc1` [Compound 46], for which it took 0.25 µM to reach half-maximal inhibition (IC50).

Molecule `O=C1C2=C(C(=O)c3c(O)ccc(O)c31)N(c1ccc(Cl)nc1)Cc1ccccc1O2` [Compound 47, 12-(6-chloropyridin-3-yl)-7,10-dihydroxy-12,13-dihydrobenzo[f]naphtho[2,3-b][1,4]-oxazepine-6,11-dione] gave an IC50 of 0.33 µM. This IC50 and that of the molecule before are within 1.5-fold of each other.

In turn, `COC(=O)c1ccc(N2Cc3ccccc3OC3=C2C(=O)c2c(O)ccc(O)c2C3=O)cc1` [Compound 48] yielded an IC50 of 0.27 µM.

`CCOC(=O)c1ccc2c(c1)CN(c1cccnc1)C1=C(O2)C(=O)c2c(O)ccc(O)c2C1=O` [Compound 51] had an IC50 of 0.6 µM.

As to `O=C(O)c1ccc2c(c1)CN(c1cccnc1)C1=C(O2)C(=O)c2c(O)ccc(O)c2C1=O` [Compound 52], the concentration for half-maximal inhibition (IC50) is > 10 µM.

Turning to `CC(=O)Oc1ccc(OC(C)=O)c2c1C(=O)C1=C(C2=O)N(c2ccc(C(=O)O)cc2)Cc2ccccc2O1` [Compound 53], the half-inhibitory concentration (IC50) worked out at 0.64 µM.

As to `O=C(O)c1ccc(N2Cc3ccccc3OC3=C2C(=O)c2c(O)ccc(O)c2C3=O)cc1` [Compound 57], the IC50 is 1.17 µM.

With `O=C1C2=C(C(=O)c3c(O)ccc(O)c31)N(c1ccc(C(=O)N3CCOCC3)cc1)Cc1ccccc1O2` [Compound 58, 7,10-dihydroxy-12-(4-(morpholine-4-carbonyl)phenyl)-12,13-dihydrobenzo[f]naphtho[2,3-b][1,4]oxazepine-6,11-dione], the IC50 is 0.5 µM.

On to `N#Cc1ccc(N2Cc3ccccc3OC3=C2C(=O)c2ccc(S(=O)(=O)N4CCOCC4)cc2C3=O)cc1` [Compound 70], for which the IC50 was 7.1 µM.

With `O=C1C2=C(C(=O)c3ccc(S(=O)(=O)N4CCOCC4)cc31)N(c1cccnc1)Cc1ccccc1O2` [Compound 71], the 50% inhibitory concentration (IC50) was determined as 3.2 µM. This IC50 is about 2.2-fold lower than that of the molecule before.

With `CN(C)CCOc1ccc(N2Cc3ccccc3OC3=C2C(=O)c2ccccc2C3=O)cn1` [Compound 72], the IC50 was found to be 0.72 µM.

Consider `N#Cc1ccc(N2Cc3ccccc3OC3=C2C(=O)c2ccc(Br)c(O)c2C3=O)cc1` [Compound 74, 4-(8-bromo-7-hydroxy-6,11-dioxo-6,11-dihydrobenzo[f]naphtho[2,3-b][1,4]oxazepin-12(13H)-yl)benzonitrile], for which the IC50 was 1.8 µM.

`CS(=O)(=O)Nc1cccc2c1C(=O)C1=C(C2=O)N(c2ccc(C#N)cc2)Cc2ccccc2O1` [Compound 78, N-(12-(4-cyanophenyl)-6,11-dioxo-6,11,12,13-tetrahydrobenzo[f]naphtha [2,3-b][1,4]oxazepin-7-yl)methanesulfonamide] returned a 50% inhibitory concentration (IC50) of 6.9 µM.

In turn, `NS(=O)(=O)c1ccc(N2Cc3ccccc3OC3=C2C(=O)c2cccc([N+](=O)[O-])c2C3=O)cc1` [Compound 79] registered an IC50 of 6.8 µM. This IC50 and that of the molecule before are within 1.5-fold of each other.

`NS(=O)(=O)c1ccc(N2Cc3ccccc3OC3=C2C(=O)c2c(cccc2[N+](=O)[O-])C3=O)cc1` [Compound 80] came in with an IC50 of 6.6 µM.

`COc1ccc(OC)c2c1C(=O)C1=C(C2=O)N(c2cccc(C#N)c2)Cc2ccccc2O1` [Compound 94] had an IC50 of 1 µM. Compared with the last molecule, the IC50 is about 6.6-fold lower.

With `N#Cc1ccc(N2Cc3ccccc3OC3=C2C(=O)c2cccc([N+](=O)[O-])c2C3=O)cc1` [Compound 107], the IC50 stood at 5.9 µM. Against the preceding molecule, the IC50 is about 5.9-fold higher.

Molecule `N#Cc1ccc(N2Cc3ccccc3OC3=C2C(=O)c2c(cccc2[N+](=O)[O-])C3=O)cc1` [Compound 108] returned an IC50 of 2.95 µM.

The IC50 is the concentration that inhibits the measured activity by half. Higher therefore signals weaker potency.
